Key:
Progesterone receptor = molecular target: T1, Progesterone receptor (Oryctolagus cuniculus, UniProt P06186); experiment: Receptor binding affinity, progesterone receptor (competitive binding, 3H-ORG 2058); conditions: Progesterone = 100%; uterus cytosol of estradiol-primed rabbit
T1 construct: Uterus cytosol of the estradiol-primed rabbit; from tissue; host or cells: uterus cytosol of estradiol-primed rabbit
T1 sequence (P06186 1-930): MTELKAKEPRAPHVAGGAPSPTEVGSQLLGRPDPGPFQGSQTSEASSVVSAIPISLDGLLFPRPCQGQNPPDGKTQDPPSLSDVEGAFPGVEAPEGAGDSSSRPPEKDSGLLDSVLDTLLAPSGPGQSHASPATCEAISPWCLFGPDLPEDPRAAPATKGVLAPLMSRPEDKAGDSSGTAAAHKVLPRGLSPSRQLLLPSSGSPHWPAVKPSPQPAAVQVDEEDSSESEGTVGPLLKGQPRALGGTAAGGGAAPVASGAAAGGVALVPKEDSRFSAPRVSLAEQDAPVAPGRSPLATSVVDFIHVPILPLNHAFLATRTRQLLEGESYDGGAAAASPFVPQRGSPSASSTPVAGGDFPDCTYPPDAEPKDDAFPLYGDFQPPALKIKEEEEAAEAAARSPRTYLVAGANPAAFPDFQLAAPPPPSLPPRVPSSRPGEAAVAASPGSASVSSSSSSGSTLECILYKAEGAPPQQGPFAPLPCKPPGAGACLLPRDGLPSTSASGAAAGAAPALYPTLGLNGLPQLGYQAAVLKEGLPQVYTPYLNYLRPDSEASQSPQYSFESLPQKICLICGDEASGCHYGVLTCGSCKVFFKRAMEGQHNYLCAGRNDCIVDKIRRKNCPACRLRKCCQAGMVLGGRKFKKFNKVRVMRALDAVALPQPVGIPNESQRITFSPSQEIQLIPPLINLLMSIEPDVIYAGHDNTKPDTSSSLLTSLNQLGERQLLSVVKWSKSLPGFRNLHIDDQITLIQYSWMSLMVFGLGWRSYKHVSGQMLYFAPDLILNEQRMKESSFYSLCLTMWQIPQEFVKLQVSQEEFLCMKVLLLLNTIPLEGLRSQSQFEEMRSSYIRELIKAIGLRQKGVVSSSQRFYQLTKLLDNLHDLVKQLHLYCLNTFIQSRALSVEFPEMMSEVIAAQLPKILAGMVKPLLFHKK
Experimental: (§1) The receptor binding affinity was determined by competitive binding of a specifically binding ^3H-labeled hormone (tracer) and the compound to be tested on receptors in the cytosol from animal target organs. In this case, receptor saturation and reaction equilibrium were sought.
(§2) The tracers and increasing concentrations of the compound to be tested (competitor) were co-incubated with the receptor-containing cytosol fraction at 0-4° C. over 18 hours. After separation of the unbonded tracer with carbon-dextran suspension, the receptor-bonded tracer portion was measured for each concentration, and the IC50 was determined from the concentration sequence. As a quotient of the IC50 values of the reference substance and the compound to be tested (×100%), the relative molar binding affinity (RBA) was calculated (RBA of the reference substance=100%).
Uterus cytosol of the estradiol-primed rabbit; homogenized in TED buffer (20 mmol of Tris/HCl, pH 7.4; 1 mmol of ethylenediamine tetraacetate, 2 mmol of dithiothreitol) with 250 mmol of saccharose; stored at −30° C. Tracer: ^3H-ORG 2058, 5 nmol; reference substance: progesterone.

adult female rats = experiment: Nidation-inhibiting test (antifertile effects in the perinidation phase); assay type: in vivo; conditions: day 5-7 of pregnancy, rat
Experimental: The determination of the progesterone-antagonistic activities was carried out on adult female rats in the nidation-inhibiting test. The principle of the test is described as follows: progesterone preserves pregnancy in all stages. An early-abortive action can accordingly be expected from competitive progesterone antagonists. Female rats (Schoe strain: WIST Tierzucht GmbH Schönwalde) with a weight of 180-200 g were subjected daily to a cycle control and paired up in proestrus. The beginning of pregnancy was determined by detecting sperm in the vaginal smear on the same day (=day 1 of pregnancy=d1 p.c.). From the 5th-7th day of pregnancy, the test substances were injected subcutaneously daily. On the 9th day, vaginal smears were taken, then the animals were autopsied and the uteri were prepared. The degeneration of implants and pathological, hemorrhagic and otherwise abnormal nidation sites were counted as abortions and are shown in Table 2.

Androgen receptor = molecular target: T2, Androgen receptor (Rattus norvegicus, UniProt P15207); experiment: Receptor binding affinity, androgen receptor (competitive binding, 3H-metribolone); conditions: prostate cytosol of castrated rat; for AR relative molar binding affinity (RBA) a) against RU 1881: reference RU 1881 (metribolone); for AR relative molar binding affinity (RBA) b) against dihydrotestosterone (DHT): reference dihydrotestosterone
T2 construct: Prostate cytosol of the castrated rat; from tissue; host or cells: prostate cytosol of castrated rat
T2 sequence (P15207 1-902): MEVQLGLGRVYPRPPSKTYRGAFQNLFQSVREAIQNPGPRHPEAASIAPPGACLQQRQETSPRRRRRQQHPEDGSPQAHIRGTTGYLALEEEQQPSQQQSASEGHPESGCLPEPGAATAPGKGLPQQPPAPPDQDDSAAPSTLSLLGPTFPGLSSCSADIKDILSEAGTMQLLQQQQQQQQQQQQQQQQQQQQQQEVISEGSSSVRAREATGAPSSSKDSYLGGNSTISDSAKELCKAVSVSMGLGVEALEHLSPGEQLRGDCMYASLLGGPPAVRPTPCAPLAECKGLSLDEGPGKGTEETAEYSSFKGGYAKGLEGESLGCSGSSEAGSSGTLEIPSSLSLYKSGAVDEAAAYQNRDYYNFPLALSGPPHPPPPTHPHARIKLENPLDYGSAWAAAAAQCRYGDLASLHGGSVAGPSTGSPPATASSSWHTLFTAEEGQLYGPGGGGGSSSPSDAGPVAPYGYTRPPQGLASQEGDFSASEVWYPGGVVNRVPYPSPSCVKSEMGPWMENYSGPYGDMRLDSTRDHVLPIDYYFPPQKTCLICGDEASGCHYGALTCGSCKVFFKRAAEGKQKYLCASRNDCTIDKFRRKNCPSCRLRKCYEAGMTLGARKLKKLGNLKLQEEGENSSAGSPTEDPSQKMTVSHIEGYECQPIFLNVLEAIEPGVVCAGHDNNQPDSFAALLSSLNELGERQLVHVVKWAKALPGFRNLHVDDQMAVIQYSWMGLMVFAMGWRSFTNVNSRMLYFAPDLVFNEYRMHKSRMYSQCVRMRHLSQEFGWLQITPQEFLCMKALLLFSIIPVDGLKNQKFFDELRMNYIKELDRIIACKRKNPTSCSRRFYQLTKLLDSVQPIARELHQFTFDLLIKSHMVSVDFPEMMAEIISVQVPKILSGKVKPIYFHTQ
Experimental: as §1, §2
Prostate cytosol of the castrated rat; prostates stored at −30° C.; buffer: TED with 10% glycerol as well as 2 μmol of triamcinolone acetonide. Tracer: ^3H-metribolone 4 nmol; reference substances: metribolone (RU 1881) or 5α-dihydrotestosterone.

SMILES: C[C@]12C[C@H](c3ccc(/C=N/O)cc3)C3=C4CCC(=O)C=C4CC[C@H]3[C@@H]1CC[C@@H]2O [Example 1, 4-(17β-Hydroxy-3-oxoestra-4,9-dien-11β-yl)benzaldehyde-1(E)-oxime]
- PR relative molar binding affinity (RBA) (Progesterone receptor): 26%
- Rate of Animals with Complete Inhibition of Nidation (adult female rats; 1.0 mg/animal/day s.c.): 0/5
- Rate of Animals with Complete Inhibition of Nidation (adult female rats; 3.0 mg/animal/day s.c.): 0/5
- Rate of Animals with Complete Inhibition of Nidation (adult female rats; 10.0 mg/animal/day s.c.): 5/5
- AR relative molar binding affinity (RBA) a) against RU 1881 (Androgen receptor): a) 17%
- AR relative molar binding affinity (RBA) b) against dihydrotestosterone (DHT) (Androgen receptor): b) 24%

SMILES: CC1(O)CCC2C3CCC4=CC(=O)CCC4=C3C(c3ccc(C=NO)cc3)CC21C (stereo not drawn) [Example 2, 4-(17β-Hydroxy-17α-methyl-3-oxoestra-4,9-dien-11β-yl)benzaldehyde-1(E)-oxime]
- PR relative molar binding affinity (RBA) (Progesterone receptor): 95%
- Rate of Animals with Complete Inhibition of Nidation (adult female rats; 0.03 mg/animal/day s.c.): 0/4
- Rate of Animals with Complete Inhibition of Nidation (adult female rats; 0.1 mg/animal/day s.c.): 0/5
- Rate of Animals with Complete Inhibition of Nidation (adult female rats; 0.3 mg/animal/day s.c.): 2/5
- Rate of Animals with Complete Inhibition of Nidation (adult female rats; 1.0 mg/animal/day s.c.): 5/5
- AR relative molar binding affinity (RBA) a) against RU 1881 (Androgen receptor): a) 16%
- AR relative molar binding affinity (RBA) b) against dihydrotestosterone (DHT) (Androgen receptor): b) 23%
